Test results as given in US20220168261A1, “COMPOUNDS AND METHODS FOR MANAGING CANCER THROUGH IMMUNE SYSTEM” (AKAMARA THERAPEUTICS, INC., priority 2019, published 2022).

Assays:
Lewis lung carcinoma = assay: Immunocompetent Lewis lung carcinoma model; type: in vivo, mice
Text: This model was therefore used to test whether the activation of both T cells, using a PD1 inhibitor, and B cells, using Compound 1, results in synergy. In this experiment, four groups of mice models for immunocompetent Lewis lung carcinoma were utilized. The mice were, independently, intravenously treated with control, Compound 1, anti-PD-1, or Compound 1+ anti-PD-1 and tumor growth monitored for at least 28 days post-tumor induction. The following table describes the treatments utilized in the experiment.

4T1 tumors = assay: 4T1 breast tumors in mice in vivo; parameters: species or system BALB/c mice
CMTR2 [1] = target: T1, CMTR2 (Mus musculus, UniProt Q8BWQ4); assay: Proteomics target identification (anti-cholesterol IP and chemical pulldown) from 4T1 lysate; type: binding
T1 construct: endogenous in cells; host or cells: 4T1 cells (lysate)
T1 sequence (Q8BWQ4 1-767): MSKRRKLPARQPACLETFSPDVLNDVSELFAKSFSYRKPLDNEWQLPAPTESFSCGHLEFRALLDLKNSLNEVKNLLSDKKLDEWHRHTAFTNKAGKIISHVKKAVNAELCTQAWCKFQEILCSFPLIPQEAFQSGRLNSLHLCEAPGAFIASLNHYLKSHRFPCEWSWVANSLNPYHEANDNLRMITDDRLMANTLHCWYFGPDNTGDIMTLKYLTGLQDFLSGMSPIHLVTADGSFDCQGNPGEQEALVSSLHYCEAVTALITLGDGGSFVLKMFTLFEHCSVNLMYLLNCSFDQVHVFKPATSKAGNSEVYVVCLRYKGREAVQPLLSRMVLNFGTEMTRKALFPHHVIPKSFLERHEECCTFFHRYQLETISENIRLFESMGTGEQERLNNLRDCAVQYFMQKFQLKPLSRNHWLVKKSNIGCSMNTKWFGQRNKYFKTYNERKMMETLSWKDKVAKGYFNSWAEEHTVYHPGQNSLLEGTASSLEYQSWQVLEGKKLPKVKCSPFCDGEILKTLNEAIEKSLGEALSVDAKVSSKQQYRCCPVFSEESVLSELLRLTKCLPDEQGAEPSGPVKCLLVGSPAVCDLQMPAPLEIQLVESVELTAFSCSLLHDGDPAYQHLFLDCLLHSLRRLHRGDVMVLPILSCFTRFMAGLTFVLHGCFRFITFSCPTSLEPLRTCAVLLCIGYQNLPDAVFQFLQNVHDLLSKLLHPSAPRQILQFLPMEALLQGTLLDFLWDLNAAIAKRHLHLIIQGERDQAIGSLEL
Description: (§1) Cap-specific mRNA (nucleoside-2′-O-)-methyltransferase 2 (CMTR2) is an enzyme that methylates at the 2′-O position of the second transcribed nucleotide of mRNAs.
In this example, two different proteomics approach were used to identify the target of Compound 1: (i) an anti-drug antibody (binds to cholesterol in Compound 1) and (ii) Compound A-1, where both (i) and (ii) were used to precipitate targets from 4T1 lysates. The 4T1 cell lysate was treated with pegylated Compound 1 for 20 hours. The 4T1 cells lysate was, independently, combined with the proteins of Table A or treated with Compound 1 and then combined with the proteins of Table A. Precipitated proteins were digested into peptides and identified using LC-MS/MS. Table A provides a summary of the proteins identified from both approaches that were enriched in Compound 1 samples above the background.

[2] = Pharmacokinetics after single i.v. bolus in tumor bearing mice; type: in vivo, female Balb/c mice; details: plasma, LC-MS/MS, noncompartmental analysis
Description: The pharmacokinetic (PK) profile of Compound 1 was evaluated following single intravenous (i.v bolus) dosing in tumor bearing female Balb/c mice. Tumor and plasma samples were collected at various time points, sparse sampling (n=3). Plasma concentrations were determined using LC-MS/MS and later subjected to Phoenix WinNonlin Noncompartmental analysis and PK parameters were estimated.

CMTR2 [3] = target: T1, CMTR2; assay: Binding of CMTR2 to Compound 1 by ELISA
Text: as §1

4T1 cells [4] = assay: Interferon pathway / anti-viral response in 4T1 cells (RT-q-PCR, iBlot); type: cell-based
Description: RT-q-PCR was performed with RNA extracted from 4T1 cells treated with 30 μM of Compound 1 or vehicle for 24 h. […] The result is representative of n=3.
See, FIG. 16. The unmethylated mRNA generated due to inhibition of CMTR2 activity leads to recognition by sensors like MDA5 and TLR3 in conjunction with adapters like TRIF.

4T1 cells [5] = assay: CMTR2 levels in 4T1 cells upon treatment; type: cell-based
Text: as §1
Alternatively, the unmethylated mRNA could also be recognized by toll-like receptors (TLR) like TLR3. Both of these would trigger many interferon regulatory factors (IRFs) leading to a type-I interferon antiviral response. The interferons can induce interferon stimulated genes (ISGs) such as interferon induced tetratricopeptide repeat protein 1 (IFIT1), which binds to unmethylated mRNA with high affinity. Furthermore, the immune system would be activated by the interferons. Additionally, the unmethylated mRNA could be secreted out from the tumor cells resulting in B-cell activation.

4T1 cells [6] = assay: Intracellular distribution of platinum and intact drug in 4T1 cells (AAS, RPHPLC); type: cell-based; details: 50 μM
Description: The remaining insoluble proteins were resuspended in RIPA lysis buffer. The leftover genomic DNA (gDNA) pellet was treated with methanol to dissociate any non-covalently bound platinum from the gDNA. All the fractions were assayed by atomic absorption spectroscopy (AAS) to determine their Pt content. […] Data was generated from three independent biological experiments and error represents standard error of mean.

[7] = Single dose toxicity study in rats; type: in vivo; details: for ALP (Hepatic), Mean / ALT (Hepatic), Mean / AST (Hepatic), Mean / Creatinine (Renal), Mean / Hemoglobin (Anemia), Mean / Neutrophil (Neutropenia), Mean / Platelet (Thrombocytopenia), Mean: rat, in vivo
Description: Further, Compound 1 was also tested for safety end point evaluation in rats. […] Doses of 44 mg/kg, 88 mg/kg and 176 mg/kg were tested and 176 mg/kg was LTD.

[8] = tumors regressed by 20% on day three

Structure (SMILES): CC(C)CCC[C@@H](C)[C@H]1CCC2C3CC=C4C[C@@H](OCCN(CC(=O)[O-])CC(=O)[O][Pt+]5[NH][C@@H]6CCCC[C@H]6[NH]5)CC[C@]4(C)C3CC[C@@]21C (stereo partly drawn) [Compound 1]
- Tumor growth (Lewis lung carcinoma; different dose regimens, compared with a MTD dose of oxaliplatin): significant tumor growth inhibition
- CD8a levels (immuno-transcripts) (Lewis lung carcinoma; mouse, in vivo): no increase was seen in CD8a levels
- Combination effect with PD1 immune checkpoint inhibitor (Lewis lung carcinoma; mouse, in vivo): synergizes with PD1 immune checkpoint inhibitor
- IGKC signal (immuno-transcripts) (Lewis lung carcinoma; mouse, in vivo): increase in IGKC signal
- 4T1 tumor ablation in mice lacking B cells (4T1 tumors; 88 mg/kg, 2 cycles, T and B-cell knockout (SCID) mice, FIG. 26): 4T1 tumor ablation does not happen in mice lacking B cells
- Tumor growth following re-implantation of cancer cells (4T1 tumors; 88 mg/kg, 2 cycles, animals with previous tumor regression, FIG. 27): No tumor growth occurs
- Tumor growth inhibition with increasing doses (4T1 tumors; 4T1 breast cancer-bearing mice, FIG. 10): clear dose-dependent effect
- Infiltrating immune cells in tumor sections (immunohistology) (4T1 tumors; 50% regressed tumors): increased IGKC levels, and increased infiltration of memory B cells (CD20+) and plasma B cells (CD138)
- B cell biomarker transcripts IGKC and CD21 in tumor (RTPCR) (4T1 tumors; FIGS. 8B to 8E): increase in IGKC and CD21
- CD8a in tumor (RTPCR) (4T1 tumors; FIGS. 8B to 8E): increase in CD8a cells
- 4T1 tumor growth (4T1 tumors; administered on days 1, 2, 6, and 7, female Balb/c mice): ablated 4T1 tumors
- Body weight (4T1 tumors; administered on days 1, 2, 6, and 7, up to 29 days post-implantation): without any loss in body weight
- Tumor size of established 4T1 tumors (4T1 tumors; cumulative dose of 176 mg/kg per cycle, 2 cycles, immunocompetent syngeneic BALB/c mice): tumor regression is observed
- % B-cell in tumor by FACS (4T1 tumors; day 3): infiltrating the tumor
- IFIT1 levels in plasma (dot-blot) (4T1 tumors; days 3, 4, 5, and 8): elevated on days 3 to 8
- INF-α levels in plasma (dot-blot) (4T1 tumors; days 3, 4, 5, and 8): elevated in plasma
- B cell phenotype by FACS in draining lymph node and spleen (4T1 tumors; post-regression, spleen following rechallenge): increase in B cells with a reduction in Bregs
- Tumor growth post rechallenge with cancer cells (immune memory) (4T1 tumors; reinjected with 4T1 cells twenty-five days post-regression, no additional treatment): absence of any tumor growth
- IFN gene expression in 4T1 tumors (4T1 tumors; [8]): robust increase in expression
- IRF3 and IRF7 gene expression in 4T1 tumors (4T1 tumors; [8]): increased expression is observed for IRF3 and IRF7
- False discovery rate of CMTR2 as lead putative target (CMTR2 [1]; LC-MS/MS of proteins precipitated from 4T1 lysates): less than 1%
- Binding to CMTR2 by proteomics (CMTR2 [1]; anti-cholesterol IP and chemical pulldown, 4T1 cell lysate): binds to CMTR2
- Estimated AUC versus dose [2]: increased linearly with dose
- Binding of CMTR2 by ELISA (CMTR2 [3]): confirmed by ELISA
- mRNA expression of TLRs, IRF7 and IFN genes (4T1 cells [4]; 30 μM, 24 h, RT-q-PCR, n=3): robust increase in expression
- Secreted (extracellular) INF-α levels (4T1 cells [4]; iBlot, FIG. 19A-19B): remarkably high
- Intracellular INF-α levels (4T1 cells [4]; iBlot, FIGS. 18A-18B): significantly elevated
- Innate anti-viral response (relative mRNA expression INF-α, IRF7, TRIF, TLR3) (4T1 cells [4]; varying concentration, FIG. 16): activation of the innate anti-viral response in a dose-dependent manner
- IRF7 levels (4T1 cells [4]; varying concentrations, FIG. 17): increased levels in 4T1 cells in a dose-dependent manner
- CMTR2 level in 4T1 cell lysate (4T1 cells [5]): dose-dependent upregulation of CMTR2
- Intracellular integrity (intact concentration by RPHPLC vs platinum by AAS) (4T1 cells [6]): remains intact intracellularly
- Tolerability of the remaining doses ([7]; 44 mg/kg and 88 mg/kg, single intravenous infusion (30 min)): well tolerated without any significant clinical signs
- ALP (Hepatic), Mean ([7]; 44 mg/kg): 107.60 U/L
- ALT (Hepatic), Mean ([7]; 44 mg/kg): 30.00 U/L
- AST (Hepatic), Mean ([7]; 44 mg/kg): 110.60 U/L
- Creatinine (Renal), Mean ([7]; 44 mg/kg): 0.49 mg/dL
- Hemoglobin (Anemia), Mean ([7]; 44 mg/kg): 15.84 g/dL
- Neutrophil (Neutropenia), Mean ([7]; 44 mg/kg): 0.72 × 10^3 cells/μL
- Platelet (Thrombocytopenia), Mean ([7]; 44 mg/kg): 1201.2 × 10^3 cells/μL
- ALP (Hepatic), Mean ([7]; 88 mg/kg): 133.00 U/L
- ALT (Hepatic), Mean ([7]; 88 mg/kg): 25.60 U/L
- AST (Hepatic), Mean ([7]; 88 mg/kg): 106.00 U/L
- Creatinine (Renal), Mean ([7]; 88 mg/kg): 0.49 mg/dL
- Hemoglobin (Anemia), Mean ([7]; 88 mg/kg): 14.92 g/dL
- Neutrophil (Neutropenia), Mean ([7]; 88 mg/kg): 0.80 × 10^3 cells/μL
- Platelet (Thrombocytopenia), Mean ([7]; 88 mg/kg): 1376.2 × 10^3 cells/μL
- ALP (Hepatic), Mean ([7]; 176 mg/kg): 209.5 U/L
- ALT (Hepatic), Mean ([7]; 176 mg/kg): 42.50 U/L
- AST (Hepatic), Mean ([7]; 176 mg/kg): 141.50 U/L
- Creatinine (Renal), Mean ([7]; 176 mg/kg): 0.52 mg/dL
- LTD ([7]; single intravenous infusion (30 min), both genders): 176 mg/kg
